Test results published in publication PMC12333940, “A prometabolite strategy inhibits cardiometabolic disease in an ApoE^–/– murine model of atherosclerosis” (JCI Insight, 2025).
Where “and” joins values, the source holds several entries; their conditions need not be identical. Equal entries are not always repeated.

Legend:
ApoE^–/– mice on an HFD [1] = test: Inflammatory cytokines in plasma (LEGENDPlex); type: in vivo, mouse; parameters: Plasma LegendPlex IFNy / Plasma LegendPlex IL-1B / Plasma LegendPlex IL-6: unit not given here; conditions: for plasma IL-1β / IL-6 and IFN-γ in plasma: 6 weeks; for IL-6 and IFN-γ in plasma: compared with control groups; for Plasma LegendPlex IFNy / Plasma LegendPlex IL-1B / Plasma LegendPlex IL-6: individual mice
Experimental: SerBut water was pH adjusted using 10 M NaOH to a final pH of 7.4. […] After 6 weeks, mice were euthanized. […] The liver was harvested and part was homogenized in tissue protein extraction reagent buffer (Invitrogen, 78510) supplemented with protease inhibitor mini tablets (Thermo Fisher Scientific, PIA32955) for Western blotting and qPCR. […] Blood chemical analysis was performed on an Alfa […] Chemistry Analyzer. Reagent kits from Alfa Wasserman were used according to manufacturer's instructions to analyze plasma: lipase (catalog SA1045), HDL-C (catalog SA2038, LDL-C (catalog SA1040), AST (catalog SA1053), ALT (catalog SA1052). A LEGENDPlex was utilized to analyze the concentrations of inflammatory cytokines (BioLegend).

NF-κB = test: NF-κB-SEAP reporter assay in RAW-Blue cells after LPS; type: cell-based; conditions: for NFkB OD: then 200 ng/mL LPS 6 h
Experimental: NF-κB inhibition was assayed using the NF-κB-SEAP reporter cell line, RAW-Blue (InvivoGen, raw-sp). Cells were plated in round-bottom 96-well plates at 100,000 cells per well and cocultured with different concentrations of either NaBut or SerBut (0.15–12 mM) for 24 hours. After the addition of butyrate, cells were rinsed with phosphate buffered saline (PBS) and then stimulated with 200 ng/mL LPS in media for 6 hours.

ApoE^–/– mice on an HFD [2] = test: Oil Red O staining of aortic root plaque; type: in vivo, mouse; parameters: ORO Quantification ORO+ Heart: unit not given here; conditions: for ORO Quantification ORO+ Heart: individual mice, experiments 1 and 2
Experimental: For 6 weeks, mice were freely administered water, water containing 150 mM SerBut, or water containing an equimolar amount of NaBut. SerBut water was pH adjusted using 10 M NaOH to a final pH of 7.4. […] In concert, mice were fed an HFD with 42% from fat and 0.2% total cholesterol (Envigo, TD-88137) ad libitum. After 6 weeks, mice were euthanized. The lMLNs, ILNs, spleen, heart, and aorta were harvested and processed for flow cytometry analysis ([67]). The liver was harvested and part was homogenized in tissue protein extraction reagent buffer (Invitrogen, 78510) supplemented with protease inhibitor mini tablets (Thermo Fisher Scientific, PIA32955) for Western blotting and qPCR. The remaining liver was fixed with 4% paraformaldehyde and embedded in paraffin for histological analysis.
Hearts were fixed in 4% paraformaldehyde for 24 hours and cryopreserved with sucrose (15% sucrose for 24 hours, 30% sucrose for 24 hours, 1:1 30% sucrose and OCT) before being embedded in OCT (Thermo Fisher Scientific). Frozen embedded samples were sectioned at 8 μm until all 3 leaflets were visible. Aortic root sections were brought to room temperature and rehydrated with PBS. Staining solution was freshly prepared by mixing 3:2 Oil Red O (0.5% in isopropanol, Sigma Aldrich) to water. The solution was filtered through a 0.22 μm PES syringe filter (Millipore) and pipetted onto sections. After 15 minutes in a sealed dark chamber, sections were washed 3 times with water and imaged. Images were analyzed using QuPath (v0.5.0) (https://qupath.github.io). Each leaflet was circled broadly to include the plaque and then subsequently trained on the QuPath pixel classifier using the software’s artificial neural network. Training images were then tested and validated to identify the plaques to calculate their area and exclude non-plaque structures in the image. Plaque sizes were subsequently averaged and used to determine percentage Oil Red O–positive plaque area in the leaflet.

RAW 264.7 macrophages = test: Flow cytometry of iNOS, CD80, CD86 in LPS-stimulated RAW 264.7; type: cell-based
Experimental: RAW 264.7 (ATCC, TIB-71) macrophages were cultured at 37°C and 5% CO2 in DMEM (Gibco) supplemented with 1 mM HEPES, 1 mM sodium pyruvate, 10% FBS, and penicillin/streptomycin. Cells were plated in round-bottom 96-well plates at 100,000 cells per well and incubated with different concentrations of either NaBut or SerBut (0.15–12 mM) for 24 hours. […] The cell culture supernatant was collected and analyzed by LEGENDPlex to analyze the concentrations of cytokines (BioLegend). Cell phenotype was analyzed using flow cytometry (Cytek Aurora).
Flow cytometry was performed using a BD LSRFortessa or a Cytek Aurora full-spectrum cytometer. Data were analyzed using FlowJo version 10.8.0. eFluor 780 Viability Dye (Invitrogen, 65-0865-14) and antibodies against the following markers were used in the RAW 264.7 macrophage in vitro studies: CD86 (BV421; BD Horizon, catalog 564198), CD80 (BC650; BioLegend, clone 16-10A1, catalog 104732), and iNOS (APC; Invitrogen, clone CXNFT, catalog 17-5920-9). Live/Dead Blue (Invitrogen, 123105A) and antibodies against the following markers were used in the atherosclerosis mouse models: F4/80 (FITC; BioLegend, clone BM8, catalog 123108), CD3e (BV605; BD Biosciences, clone 145-2C11, catalog 563565), CD4 (BUV496; BD Biosciences, clone GK 1.5, catalog 612952), RORγt (AF647; BD Biosciences, clone Q31-378, catalog 562682), FoxP3 (AF488, BD Biosciences, clone MF23, catalog 560403), CCR2 (PE; R&D Systems, catalog FAB5538P), Ly6C (APC-Cy7; BioLegend, catalog 128026, clone HK1.4), Ly6G (AF488; BioLegend, catalog 127626), CD8 (APC-Cy7; BioLegend, clone 53-6.7, catalog 100714), CD45 (BUV805; Invitrogen, clone 30-F11, catalog 368-0451-82), and CD25 (PerCP-Cy5.5; BioLegend, clone PC61, catalog 102030).

[3] = 0.45 mM, 12 Hour LPS stim after Butyrate treament, listed as NB
[4] = 0.45 mM, 12 hour LPS stim before butyrate treatment, listed as NB
[5] = 1.3 mM, 12 Hour LPS stim after Butyrate treament, listed as NB
[6] = 1.3 mM, 12 hour LPS stim before butyrate treatment, listed as NB
[7] = 4 mM, 12 Hour LPS stim after Butyrate treament, listed as SB
[8] = 4 mM, 12 hour LPS stim before butyrate treatment, listed as SB
[9] = 12 mM, 12 Hour LPS stim after Butyrate treament, listed as SB
[10] = 12 mM, 12 hour LPS stim before butyrate treatment, listed as SB

CCCC(=O)[O-].[Na+] [NaBut, sodium butyrate, reference compound]
plasma IL-1β (ApoE^–/– mice on an HFD [1]): trend toward reduction
IL-6 and IFN-γ in plasma (ApoE^–/– mice on an HFD [1]): did not
Plasma LegendPlex IFNy (ApoE^–/– mice on an HFD [1]): 43.19 and 71.91 and 156.97 and 1.54 and 133.26 and 33.33 and 25.52 and 29.92 and 11.45
Plasma LegendPlex IL-1B (ApoE^–/– mice on an HFD [1]): 1.73 and 1.26 and 132.12 and 0.34 and 3.85 and 0.46 and 0.64
Plasma LegendPlex IL-6 (ApoE^–/– mice on an HFD [1]): 1.6 and 2.29 and 7.3 and 0.92 and 0.99 and 1.54
NFkB OD (NF-κB; 0.45 mM 24 h): 0.161 and 0.132 and 0.164 and 0.174 and 0.222 and 0.147
NFkB OD (NF-κB; 1.3 mM 24 h): 0.118 and 0.109 and 0.114 and 0.106 and 0.112 and 0.117
NFkB OD (NF-κB; 4 mM 24 h): 0.077 and 0.086 and 0.085 and 0.074 and 0.081
ORO Quantification ORO+ Heart (ApoE^–/– mice on an HFD [2]): 19.7151 and 33.3577 and 43.2157 and 32.1745 and 46.8072 and 36.2576 and 32.4176 and 40.5144 and 34.2074 and 37.9228
CD80 MFI (RAW 264.7 macrophages; 0.15 mM 24 h, then LPS 6 h): 22618 and 22070 and 22276
iNOS MFI (RAW 264.7 macrophages; 0.15 mM 24 h, then LPS 6 h): 132178 and 120454 and 127565
CD80 MFI (RAW 264.7 macrophages; 0.45 mM 24 h, then LPS 6 h): 22987 and 22543 and 22840
iNOS MFI (RAW 264.7 macrophages; 0.45 mM 24 h, then LPS 6 h): 139940 and 135604 and 131383
CD80+ % Live (RAW 264.7 macrophages; [3]): 31.4% and 45.9% and 36.7%
CD86+ % Live (RAW 264.7 macrophages; [3]): 10.9% and 12.8% and 11.6%
iNOS+ %Live (RAW 264.7 macrophages; [3]): 72.8% and 94.5% and 85.8%
CD80+ % Live (RAW 264.7 macrophages; [4]): 55.4% and 59.7% and 52.7%
CD86+ % Live (RAW 264.7 macrophages; [4]): 16.4% and 16% and 15.5%
iNOS+ %Live (RAW 264.7 macrophages; [4]): 39.7% and 50% and 39.3%
CD80 MFI (RAW 264.7 macrophages; 1.3 mM 24 h, then LPS 6 h): 22932 and 22915 and 22360
iNOS MFI (RAW 264.7 macrophages; 1.3 mM 24 h, then LPS 6 h): 123416 and 155157 and 124806
CD80+ % Live (RAW 264.7 macrophages; [5]): 40.8% and 54.3% and 32.8%
CD86+ % Live (RAW 264.7 macrophages; [5]): 22.7% and 26% and 18.7%
iNOS+ %Live (RAW 264.7 macrophages; [5]): 66.2% and 87.1% and 52%
CD80+ % Live (RAW 264.7 macrophages; [6]): 47.8% and 46.8% and 51.4%
CD86+ % Live (RAW 264.7 macrophages; [6]): 16.7% and 17.4% and 18.3%
iNOS+ %Live (RAW 264.7 macrophages; [6]): 31.6% and 29.4% and 31.8%

CCCC(=O)OC[C@H](N)C(=O)O [SerBut, O-butyryl-L-serine]
plasma IL-1β (ApoE^–/– mice on an HFD [1]): trend toward reduction
IL-6 and IFN-γ in plasma (ApoE^–/– mice on an HFD [1]): reduced
Plasma LegendPlex IFNy (ApoE^–/– mice on an HFD [1]): 1.54 and 21.65 and 44.82 and 28.44 and 36.42
Plasma LegendPlex IL-1B (ApoE^–/– mice on an HFD [1]): 1.73 and 1.26 and 21.47 and 0.83 and 1.61 and 1.04 and 1.97 and 2.89 and 4.7
Plasma LegendPlex IL-6 (ApoE^–/– mice on an HFD [1]): 1.18 and 0.95 and 0.92 and 0.99 and 2.99
NFkB OD (NF-κB; 1.3 mM 24 h): 0.215 and 0.212 and 0.201 and 0.244 and 0.265 and 0.185
NFkB OD (NF-κB; 4 mM 24 h): 0.151 and 0.171 and 0.176 and 0.19 and 0.152
NFkB OD (NF-κB; 12 mM 24 h): 0.101 and 0.118 and 0.1 and 0.099 and 0.117 and 0.087
LPS-induced NF-κB activation (NF-κB; 12 mM, comparable to 1.3 mM NaBut): significantly suppressed LPS-induced NF-κB activation
Oil Red O–stained plaque area in the aortic root (ApoE^–/– mice on an HFD [2]; 6 weeks, 150 mM in drinking water, HFD, compared with both control and NaBut-treated groups): significantly less
ORO Quantification ORO+ Heart (ApoE^–/– mice on an HFD [2]): 21.0027 and 29.8005 and 22.5256 and 19.8678 and 31.4493 and 14.4105 and 13.3736 and 26.8175 and 18.8593 and 30.307 and 36.2089 and 15.3228 and 16.4207 and 38.8939 and 24.9469 and 30.9724 and 19.1725
CD80 MFI (RAW 264.7 macrophages; 1.3 mM 24 h, then LPS 6 h): 22757 and 22379 and 22182 and 22697 and 22413
iNOS MFI (RAW 264.7 macrophages; 1.3 mM 24 h, then LPS 6 h): 133476 and 131849 and 120651 and 126894 and 131328
CD80 MFI (RAW 264.7 macrophages; 4 mM 24 h, then LPS 6 h): 22258 and 21750 and 21713 and 21977 and 22364 and 21487
iNOS MFI (RAW 264.7 macrophages; 4 mM 24 h, then LPS 6 h): 123258 and 124792 and 115548 and 125159 and 131532 and 119298
CD80+ % Live (RAW 264.7 macrophages; [7]): 20.6% and 26% and 25.2%
CD86+ % Live (RAW 264.7 macrophages; [7]): 6.07% and 6.44% and 6.25%
iNOS+ %Live (RAW 264.7 macrophages; [7]): 57.8% and 66.6% and 65.8%
CD80+ % Live (RAW 264.7 macrophages; [8]): 45.8% and 43.1% and 44.5%
CD86+ % Live (RAW 264.7 macrophages; [8]): 14.9% and 14.1% and 14.2%
iNOS+ %Live (RAW 264.7 macrophages; [8]): 40.8% and 45.6% and 40.9%
iNOS and CD80 expression after LPS stimulation (RAW 264.7 macrophages; 12 mM): significantly reduced
CD80 MFI (RAW 264.7 macrophages; 12 mM 24 h, then 200 ng/mL LPS 6 h): 20826 and 21079 and 20195 and 20493 and 21214 and 20412
iNOS MFI (RAW 264.7 macrophages; 12 mM 24 h, then LPS 6 h): 95330 and 101513 and 93052 and 99228 and 94381 and 96644
CD80+ % Live (RAW 264.7 macrophages; [9]): 13.7% and 18.3% and 22.8%
CD86+ % Live (RAW 264.7 macrophages; [9]): 6.99% and 8.29% and 9.22%
iNOS+ %Live (RAW 264.7 macrophages; [9]): 26.5% and 43.9% and 50.9%
CD80+ % Live (RAW 264.7 macrophages; [10]): 43.1% and 48% and 48.3%
CD86+ % Live (RAW 264.7 macrophages; [10]): 14.5% and 13.5% and 15.9%
iNOS+ %Live (RAW 264.7 macrophages; [10]): 31.3% and 49.4% and 36.1%
iNOS-suppressing capacity during longer LPS stimulations (RAW 264.7 macrophages; high doses): maintained
